In ChEMBL document CHEMBL1201862, “PubChem BioAssay data set” (2004):
Active and inactive are the calls of the source.

Key:
[1] = molecular target: T1, Mannose-6-phosphate isomerase (Homo sapiens, UniProt P34949); assay: MPI enzyme activity inhibition – biochemical, fluorescence intensity, coupled assay, primary screen (AID 1209)
T1 sequence (P34949 whole entry): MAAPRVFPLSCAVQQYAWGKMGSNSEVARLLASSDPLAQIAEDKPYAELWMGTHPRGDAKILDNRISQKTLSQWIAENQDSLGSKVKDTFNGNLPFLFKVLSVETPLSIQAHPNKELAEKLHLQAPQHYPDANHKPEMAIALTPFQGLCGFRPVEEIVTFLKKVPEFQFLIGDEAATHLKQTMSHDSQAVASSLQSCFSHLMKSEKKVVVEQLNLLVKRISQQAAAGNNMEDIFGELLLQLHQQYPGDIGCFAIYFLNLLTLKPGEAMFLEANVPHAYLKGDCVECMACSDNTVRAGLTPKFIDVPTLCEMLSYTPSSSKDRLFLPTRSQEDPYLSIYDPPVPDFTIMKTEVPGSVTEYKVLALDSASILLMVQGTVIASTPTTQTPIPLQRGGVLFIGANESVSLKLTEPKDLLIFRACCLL

[2] = molecular target: T1, Mannose-6-phosphate isomerase; assay: phosphomannose isomerase inhibition – biochemical, fluorescence intensity, confirmation (AID 1535)
Phosphomannomutase 2 = Phosphomannomutase 2 (Homo sapiens, UniProt O15305); assay: Counter screen SAR assay for PMM2 inhibitors via a fluorescence intensity assay. [Related pubchem assays (depositor defined):AID1545, AID1574]
Phosphomannomutase 2, sequence (O15305 whole entry): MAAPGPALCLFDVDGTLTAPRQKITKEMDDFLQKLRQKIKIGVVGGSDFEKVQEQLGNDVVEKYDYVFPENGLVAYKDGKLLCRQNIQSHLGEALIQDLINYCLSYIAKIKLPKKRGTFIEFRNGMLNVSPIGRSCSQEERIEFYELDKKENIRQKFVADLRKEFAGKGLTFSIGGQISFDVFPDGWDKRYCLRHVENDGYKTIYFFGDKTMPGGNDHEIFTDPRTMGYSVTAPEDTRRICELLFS

[3] = molecular target: T2, Mitochondrial peptide methionine sulfoxide reductase (Bos taurus, UniProt P54149); assay: Absorbance-based biochemical high throughput dose response assay for activators of Methionine sulfoxide reductase A (MsrA).; type: functional
T2 sequence (P54149 whole entry): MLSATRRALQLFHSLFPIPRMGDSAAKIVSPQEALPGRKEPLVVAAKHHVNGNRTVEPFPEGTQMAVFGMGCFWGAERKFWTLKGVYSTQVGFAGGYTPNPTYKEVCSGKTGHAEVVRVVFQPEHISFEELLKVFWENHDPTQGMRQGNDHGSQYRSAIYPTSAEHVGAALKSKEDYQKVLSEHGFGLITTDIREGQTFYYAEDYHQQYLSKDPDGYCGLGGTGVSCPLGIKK

NS3 = NS3 (Hepatitis C virus, UniProt A3EZJ3); assay: PubChem AID 2173; parameters: species or system Hepacivirus hominis
NS3, sequence (A3EZJ3 whole entry): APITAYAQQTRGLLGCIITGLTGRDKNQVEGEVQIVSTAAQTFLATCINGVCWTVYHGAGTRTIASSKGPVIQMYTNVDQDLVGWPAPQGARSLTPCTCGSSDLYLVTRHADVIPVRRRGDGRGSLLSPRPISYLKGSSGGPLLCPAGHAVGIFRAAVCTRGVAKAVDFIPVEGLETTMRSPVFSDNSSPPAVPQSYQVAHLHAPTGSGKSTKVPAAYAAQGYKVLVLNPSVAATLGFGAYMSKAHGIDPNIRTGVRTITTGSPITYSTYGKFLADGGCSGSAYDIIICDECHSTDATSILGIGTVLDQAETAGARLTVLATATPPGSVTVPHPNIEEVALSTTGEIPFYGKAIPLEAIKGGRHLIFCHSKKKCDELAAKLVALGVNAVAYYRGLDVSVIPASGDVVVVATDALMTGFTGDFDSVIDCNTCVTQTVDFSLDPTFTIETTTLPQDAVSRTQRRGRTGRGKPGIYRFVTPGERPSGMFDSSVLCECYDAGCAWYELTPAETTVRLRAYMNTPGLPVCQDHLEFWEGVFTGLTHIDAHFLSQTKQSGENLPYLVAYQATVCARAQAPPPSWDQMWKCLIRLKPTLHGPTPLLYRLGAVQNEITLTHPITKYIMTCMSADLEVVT

[4] = Luminescence Cell-Based/Microorganism Confirmation at Dose of Inhibitors of Trypanosoma cruzi Infection. [Related pubchem assays: 1885, 1968 ]; type: functional
[5] = Trypanosoma cruzi growth suppression in host cells – NIH3T3 host cells, beta-gal luminescence, confirmation (AID 2044); type: functional, cell-based;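 note: intracellular parasites grown in NIH/3T3 mouse fibroblasts as host cells; luminescent beta-galactosidase reporter signal from transgenic T. cruzi replicating inside host cells; inhibitors lower the luminescence signal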
[6] = Luminescence Cell-Based Secondary HTS screen to identify cytotoxic compounds of NIH3T3 cells. [Related pubchem assays: 1885, 1968 ]; type: functional
[7] = NIH3T3 cell viability loss – ATP luminescence, mouse fibroblasts, counter-screen, dose response (AID 2010); type: functional, cell-based;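 note: cells exposed to compound for about 90 hours before reading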
[8] = molecular target: T3, Short transient receptor potential channel 4 (Mus musculus, UniProt Q9QUQ5); assay: block of DAMGO-driven TRPC4 calcium entry – cell-based, HEK293 TRPC4/mu-opioid, Fluo-4 calcium, dose response (AID 434942); type: functional;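 note: potency of inhibitors blocking the TRPC4 calcium response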
T3 sequence (Q9QUQ5 whole entry): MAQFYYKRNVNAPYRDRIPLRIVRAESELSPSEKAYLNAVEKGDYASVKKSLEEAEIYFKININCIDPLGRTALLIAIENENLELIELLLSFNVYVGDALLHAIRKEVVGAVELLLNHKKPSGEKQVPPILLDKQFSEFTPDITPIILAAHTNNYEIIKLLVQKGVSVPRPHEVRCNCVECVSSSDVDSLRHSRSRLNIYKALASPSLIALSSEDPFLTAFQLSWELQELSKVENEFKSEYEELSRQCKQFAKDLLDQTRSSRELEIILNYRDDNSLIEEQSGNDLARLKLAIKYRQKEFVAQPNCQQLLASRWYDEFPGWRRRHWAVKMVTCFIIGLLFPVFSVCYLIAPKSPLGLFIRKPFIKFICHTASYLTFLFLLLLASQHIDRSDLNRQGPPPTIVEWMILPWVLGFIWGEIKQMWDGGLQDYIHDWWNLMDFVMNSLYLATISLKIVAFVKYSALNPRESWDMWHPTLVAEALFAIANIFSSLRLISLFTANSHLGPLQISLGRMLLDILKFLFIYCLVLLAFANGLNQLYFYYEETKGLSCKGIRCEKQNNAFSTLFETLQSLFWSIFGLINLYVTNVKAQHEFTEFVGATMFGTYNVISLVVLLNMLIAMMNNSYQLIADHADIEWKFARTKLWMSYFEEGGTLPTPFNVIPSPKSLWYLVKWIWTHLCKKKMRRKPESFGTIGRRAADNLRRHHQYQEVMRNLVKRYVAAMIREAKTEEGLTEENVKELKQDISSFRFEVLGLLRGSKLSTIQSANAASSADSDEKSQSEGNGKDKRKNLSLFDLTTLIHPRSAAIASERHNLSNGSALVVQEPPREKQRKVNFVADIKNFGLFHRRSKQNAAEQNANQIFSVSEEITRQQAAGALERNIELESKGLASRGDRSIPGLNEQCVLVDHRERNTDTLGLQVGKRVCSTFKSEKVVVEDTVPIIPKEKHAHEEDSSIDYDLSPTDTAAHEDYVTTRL

[9] = antiviral protection against BTV-induced cell death – arbovirus, BSR cells, confirmation (AID 1250); type: functional;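 note: protection from viral cytopathic effect measured as cell viability by ATP luminescence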
Cytochrome P450 2C9 = Cytochrome P450 2C9 (Homo sapiens, UniProt P11712); settings: Potency
Cytochrome P450 2C9, sequence (P11712 whole entry): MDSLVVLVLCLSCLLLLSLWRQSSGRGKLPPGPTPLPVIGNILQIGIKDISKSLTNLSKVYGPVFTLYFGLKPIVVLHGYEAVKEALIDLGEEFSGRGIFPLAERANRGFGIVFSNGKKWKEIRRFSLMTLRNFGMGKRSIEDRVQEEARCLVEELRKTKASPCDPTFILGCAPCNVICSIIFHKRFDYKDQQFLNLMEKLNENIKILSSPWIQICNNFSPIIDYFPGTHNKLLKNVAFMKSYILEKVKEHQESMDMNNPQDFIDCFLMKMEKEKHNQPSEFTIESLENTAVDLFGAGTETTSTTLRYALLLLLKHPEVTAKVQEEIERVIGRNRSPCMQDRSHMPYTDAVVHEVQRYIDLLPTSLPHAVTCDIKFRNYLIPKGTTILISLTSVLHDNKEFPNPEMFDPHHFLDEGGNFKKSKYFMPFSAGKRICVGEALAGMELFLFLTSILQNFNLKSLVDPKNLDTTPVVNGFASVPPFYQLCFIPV

[10] = A High Throughput Confirmatory Assay used to Identify Novel Compounds that Inhibit Mycobacterium Tuberculosis in the absence of Glycerol.; type: functional
Melanocortin receptor 4 = Melanocortin receptor 4 (Homo sapiens, UniProt P32245); assay: inhibitors of MC4R cAMP signaling – cell-based, TR-FRET, biased antagonists, dose response (AID 602298); type: functional;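 note: antagonist potency against agonist-stimulated cAMP production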
Melanocortin receptor 4, sequence (P32245 whole entry): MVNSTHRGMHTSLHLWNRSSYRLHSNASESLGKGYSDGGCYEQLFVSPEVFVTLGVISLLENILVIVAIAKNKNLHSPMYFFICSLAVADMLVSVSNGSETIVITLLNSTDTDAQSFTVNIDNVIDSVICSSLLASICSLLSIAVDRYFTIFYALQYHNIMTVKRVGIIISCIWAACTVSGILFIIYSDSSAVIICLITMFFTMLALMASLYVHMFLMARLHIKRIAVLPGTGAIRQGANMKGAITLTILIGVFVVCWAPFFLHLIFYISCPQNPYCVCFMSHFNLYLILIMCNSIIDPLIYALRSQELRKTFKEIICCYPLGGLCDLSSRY

[11] = cAMP pathway inhibition in counterscreen cell line – TR-FRET cAMP detection, counter-screen for MC4R biased antagonist project, dose response (AID 602305); type: functional, cell-based;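 note: U2OS cells stimulated with forskolin near its EC80 as the cAMP inducer; potency is for inhibition of forskolin-stimulated cAMP signaling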
Cytochrome P450 2D6 = Cytochrome P450 2D6 (Homo sapiens, UniProt P10635); assay: qHTS Assay for Inhibitors and Substrates of Cytochrome P450 2D6. [Related pubchem assays: 410 ]; type: ADME; settings: read-out: Potency
Cytochrome P450 2D6, sequence (P10635 whole entry): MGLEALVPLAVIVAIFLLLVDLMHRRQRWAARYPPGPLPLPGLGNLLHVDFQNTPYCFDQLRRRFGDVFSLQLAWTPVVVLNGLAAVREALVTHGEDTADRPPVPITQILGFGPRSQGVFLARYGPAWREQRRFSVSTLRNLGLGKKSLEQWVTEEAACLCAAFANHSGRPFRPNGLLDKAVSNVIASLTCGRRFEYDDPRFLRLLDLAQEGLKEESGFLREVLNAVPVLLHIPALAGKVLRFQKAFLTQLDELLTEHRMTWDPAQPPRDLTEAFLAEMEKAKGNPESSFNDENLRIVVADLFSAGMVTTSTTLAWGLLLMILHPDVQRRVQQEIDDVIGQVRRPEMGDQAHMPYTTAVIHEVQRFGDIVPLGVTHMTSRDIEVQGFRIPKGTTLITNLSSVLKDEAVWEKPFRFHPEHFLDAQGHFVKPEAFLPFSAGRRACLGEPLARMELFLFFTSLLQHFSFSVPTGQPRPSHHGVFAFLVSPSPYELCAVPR

Bcl-2-like protein 10 = molecular target: T4, Bcl-2-like protein 10 (Homo sapiens, UniProt Q9HD36); assay: Concentration-response of Bcl-B inhibitors by biochemical FP with TR3 (AID 1243); type: functional
T4 sequence (Q9HD36 whole entry): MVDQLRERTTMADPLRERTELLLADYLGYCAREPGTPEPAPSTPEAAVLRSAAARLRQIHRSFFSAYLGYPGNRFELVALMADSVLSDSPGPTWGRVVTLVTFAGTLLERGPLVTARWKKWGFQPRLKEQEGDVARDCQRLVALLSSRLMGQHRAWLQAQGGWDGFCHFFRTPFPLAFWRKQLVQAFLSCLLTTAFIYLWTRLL

[12] = molecular target: G2/mitotic-specific cyclin-B1 (Homo sapiens, UniProt P14635); assay: Counterscreen assay for inhibitors of Wee1 degradation: dose response cell-based assay to identify inhibitors of cyclin B degradation. [Related pubchem assays: 1410, 1321 ]; type: functional
G2/mitotic-specific cyclin-B1, sequence (P14635 whole entry): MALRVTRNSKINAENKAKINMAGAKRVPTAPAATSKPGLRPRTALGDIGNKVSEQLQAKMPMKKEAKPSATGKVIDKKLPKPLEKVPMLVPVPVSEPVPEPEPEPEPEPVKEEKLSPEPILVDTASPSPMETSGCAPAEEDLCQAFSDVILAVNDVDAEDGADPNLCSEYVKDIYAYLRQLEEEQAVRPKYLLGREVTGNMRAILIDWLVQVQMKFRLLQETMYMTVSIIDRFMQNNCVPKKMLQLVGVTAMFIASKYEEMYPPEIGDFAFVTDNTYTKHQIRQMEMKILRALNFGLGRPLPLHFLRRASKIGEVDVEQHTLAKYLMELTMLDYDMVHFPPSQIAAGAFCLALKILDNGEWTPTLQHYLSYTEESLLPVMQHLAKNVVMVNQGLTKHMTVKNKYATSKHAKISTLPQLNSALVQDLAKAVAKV

[13] = Luminescence Cell-Based Dose Confirmation HTS to Identify Activators of 5'UTR Stem-Loop Driven Alpha-Synuclein mRNA Translation in H4 Neuroglioblastoma Cells. [Related pubchem assays: 1829 (Project Summary), 1814 (Primary HTS)]; type: functional
[14] = Luminescence Cell-Based Dose Response HTS to Identify Activators of Luciferase Translation or Activity in H4 […] Cells. [Related pubchem assays: 1829 (Project Summary), 1814 (Primary HTS)]; type: functional
Wee1-like protein kinase = Wee1-like protein kinase (Homo sapiens, UniProt P30291); assay: Dose Response Cell-based Assay for Inhibitors of Wee1 Degradation. [Related pubchem assays: 1410, 1321 ]; type: functional
Wee1-like protein kinase, sequence (P30291 whole entry): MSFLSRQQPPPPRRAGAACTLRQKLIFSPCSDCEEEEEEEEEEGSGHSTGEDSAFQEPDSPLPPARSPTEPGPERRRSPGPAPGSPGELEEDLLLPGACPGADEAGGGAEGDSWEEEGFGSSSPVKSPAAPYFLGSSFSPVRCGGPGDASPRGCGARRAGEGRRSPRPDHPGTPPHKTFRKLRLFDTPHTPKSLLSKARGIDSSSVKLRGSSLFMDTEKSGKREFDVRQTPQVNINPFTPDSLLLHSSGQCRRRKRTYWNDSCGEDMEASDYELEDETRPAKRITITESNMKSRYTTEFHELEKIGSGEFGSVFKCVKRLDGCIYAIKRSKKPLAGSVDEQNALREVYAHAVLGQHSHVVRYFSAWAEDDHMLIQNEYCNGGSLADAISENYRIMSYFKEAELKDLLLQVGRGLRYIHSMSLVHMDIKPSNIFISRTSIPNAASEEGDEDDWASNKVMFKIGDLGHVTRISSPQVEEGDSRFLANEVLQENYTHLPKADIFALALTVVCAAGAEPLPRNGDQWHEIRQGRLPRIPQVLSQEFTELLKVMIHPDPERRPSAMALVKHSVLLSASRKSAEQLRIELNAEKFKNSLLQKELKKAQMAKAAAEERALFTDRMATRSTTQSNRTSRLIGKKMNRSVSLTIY

H4 = assay: Luminescence Cell-Based Dose Response HTS to Identify Activators of 5'UTR Stem-Loop Driven Prion Protein mRNA Translation in H4 Neuroglioblastoma Cells. [Related pubchem assays: 1829 (Project Summary), 1814 (Primary HTS)]; type: functional; settings: Homo sapiens
[15] = molecular target: T2, Mitochondrial peptide methionine sulfoxide reductase; type: functional
[16] = molecular target: T5, Alkaline phosphatase, tissue-nonspecific isozyme (Homo sapiens, UniProt P05186)
T5 sequence (P05186 whole entry): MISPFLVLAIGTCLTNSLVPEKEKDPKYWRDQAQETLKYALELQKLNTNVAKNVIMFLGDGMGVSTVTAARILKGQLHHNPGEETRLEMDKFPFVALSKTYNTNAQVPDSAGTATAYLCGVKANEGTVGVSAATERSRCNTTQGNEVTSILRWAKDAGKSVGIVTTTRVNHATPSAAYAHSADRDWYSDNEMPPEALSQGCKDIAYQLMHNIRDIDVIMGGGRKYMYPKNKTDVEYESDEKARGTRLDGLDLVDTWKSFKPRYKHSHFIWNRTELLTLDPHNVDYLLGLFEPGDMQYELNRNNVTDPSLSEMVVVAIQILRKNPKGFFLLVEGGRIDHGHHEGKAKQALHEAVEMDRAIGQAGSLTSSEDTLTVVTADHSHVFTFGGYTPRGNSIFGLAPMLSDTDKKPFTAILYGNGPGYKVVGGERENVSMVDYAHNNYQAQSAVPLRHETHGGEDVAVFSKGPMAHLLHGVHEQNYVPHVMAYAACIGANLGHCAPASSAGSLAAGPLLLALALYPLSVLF

[17] = HPDE-C7 pancreatic duct cell viability loss – fluorescence, HTS (AID 430); type: functional, cell-based; settings: Homo sapiens
[18] = viability loss of HPDE-C7K cells – cell-based, fluorescence, HTS, primary screen (AID 431); type: functional; settings: Homo sapiens
[19] = Luminescence Cell-Based Dose Retest to Confirm Inhibitors of Cancer Stem Cells. [Related pubchem assays (depositor defined):AID2717, AID2721]; type: functional; settings: Homo sapiens
[20] = molecular target: T6, Methionyl-tRNA synthetase, putative (Trypanosoma brucei brucei, UniProt Q38C91); type: functional, Trypanosoma brucei brucei strain 927/4 GUTat10.1
T6 sequence (Q38C91 whole entry): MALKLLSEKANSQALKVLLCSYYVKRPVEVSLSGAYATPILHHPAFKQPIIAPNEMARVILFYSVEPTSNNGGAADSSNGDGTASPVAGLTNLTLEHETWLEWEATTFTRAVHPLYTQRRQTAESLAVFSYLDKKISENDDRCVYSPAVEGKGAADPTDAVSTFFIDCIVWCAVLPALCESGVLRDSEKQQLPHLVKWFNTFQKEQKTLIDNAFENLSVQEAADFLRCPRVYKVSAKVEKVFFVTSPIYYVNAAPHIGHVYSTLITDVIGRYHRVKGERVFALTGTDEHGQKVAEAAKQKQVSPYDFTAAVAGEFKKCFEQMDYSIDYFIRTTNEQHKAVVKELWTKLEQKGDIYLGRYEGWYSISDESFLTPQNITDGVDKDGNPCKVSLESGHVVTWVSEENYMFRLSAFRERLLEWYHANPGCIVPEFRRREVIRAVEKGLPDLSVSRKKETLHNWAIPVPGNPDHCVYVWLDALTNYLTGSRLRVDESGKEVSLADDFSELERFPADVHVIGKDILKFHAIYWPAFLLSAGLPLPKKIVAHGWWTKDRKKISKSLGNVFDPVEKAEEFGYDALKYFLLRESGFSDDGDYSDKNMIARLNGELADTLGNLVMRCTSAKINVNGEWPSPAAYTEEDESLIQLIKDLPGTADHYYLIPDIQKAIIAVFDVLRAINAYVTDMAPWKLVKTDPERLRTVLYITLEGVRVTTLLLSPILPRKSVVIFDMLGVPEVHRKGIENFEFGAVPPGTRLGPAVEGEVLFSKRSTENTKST

[21] = Counterscreen for inhibitors of Trypanosoma brucei methionyl tRNA synthetase (MetRS): Luminescence-based cell-based high throughput dose response assay to identify compounds that are cytotoxic to Jurkat human T lymphocyte cells.; type: functional; settings: jurkat
[22] = molecular target: T6, Methionyl-tRNA synthetase, putative; type: functional, Trypanosoma brucei brucei strain 927/4 GUTat10.1; remark: listed apart in the source

Sc1n[nH]c(-c2cccc(Br)c2)n1
IC50 [1]: 14.5 µM (active)
IC50 [2]: 6.15 µM (active)
IC50 (Phosphomannomutase 2): > 100 µM (inactive)
EC50 [3]: > 104 µM (inactive)

COc1ccc(OC)c(C2CC(=O)N3CN(c4ccccc4F)CSC3=C2C#N)c1 (stereo unspecified)
IC50 (NS3): 6.77 µM (active)

CC(C)Oc1cccc(C(=O)C2CCCN(Cc3cnn(C(C)C)c3)C2)c1 (stereo unspecified)
EC50 [4]: 0.068 µM (active)
EC50 [5]: < 0.1 µM (active)
EC50 [6]: > 195 µM (not active)
EC50 [7]: > 60 µM (not active)
EC50 [8]: 2.11 µM (active)
EC50 (cells): 0.039 µM (active)

CC(C)CCOc1ccc(/C=C2\CCn3c2nc2cc(C(=O)O)ccc2c3=O)cc1
IC50 [9]: 32.2 µM (active)

CC(C)C[C@@H](CC(=O)N[C@@H](CCC(=O)O)CC(=O)O)NC(=O)[C@@H]1CCCC[C@H]1NC(=O)C[C@H](CCCN)NC(=O)C[C@H](CO)NC(=O)[C@@H]1CNCC[C@H]1N
AC50 (Cytochrome P450 2C9): 31.6 µM (inconclusive)

CN1CCN(C(=O)/C=C/c2cn(-c3ccccc3)nc2-c2ccc3c(c2)OCCO3)CC1
IC50 [10]: > 100 µM (active)
IC50 (Melanocortin receptor 4): > 64.6 µM (inactive)
IC50 [11]: > 64.6 µM (inactive)

COc1cc(C(=O)O[C@@H]2CC(C)=CC[C@@]3(C)CC[C@](O)(C(C)C)[C@H]23)ccc1O
AC50 (Cytochrome P450 2D6): 31.6 µM (inconclusive)

O=C(O)C1Nc2c(C(=O)N3CCCC3)cccc2C2C=CCC12 (stereo unspecified)
EC50 (Bcl-2-like protein 10): 4.95 µM (active)

COc1cccc(C2=CC(c3cccc(OC)c3OC)n3nnnc3N2)c1 (stereo unspecified)
EC50 [12]: > 49.7 µM (not active)
EC50 [13]: 26.1 µM (active)
EC50 [14]: 17 µM (active)
EC50 (Wee1-like protein kinase): > 49.7 µM (not active)
EC50 (H4): 13.1 µM (active)
IC50 [15]: 155 µM (inactive)

Clc1ccc(COC(Cn2ccnc2)c2ccc(Cl)cc2Cl)c(Cl)c1 (stereo unspecified) [MICONAZOLE NITRATE]
EC50 [16]: 70.6 µM (not active)
EC50 [17]: 8.19 µM (active)
EC50 [18]: 7.45 µM (active)
AC50 [19]: 6.36 µM (active)
IC50 [20]: 11 µM (inactive)
IC50 [21]: 28.1 µM (inactive)
IC50 [22]: 13.2 µM (inactive)
